Assays:
Assay type in all cases: in vivo
rice (Oryza sativa) = experiment: Test B flooded paddy test, rice; conditions: 250 g ai/ha, Flood, scale of 0 to 100 where 0 is no effect and 100 is complete control, visually evaluated after 10 to 14 days, read-out: Plant response rating, Rice
Protocol: (§1) Plant species in the flooded paddy test selected from barnyardgrass (Echinochloa crusgalli), ducksalad (Heteranthera limosa), rice (Oryza sativa), and sedge, umbrella (small-flower umbrella sedge, Cyperus difformis) were grown to the 2-leaf stage for testing. At time of treatment, test pots were flooded to 3 cm above the soil surface, treated by application of test compounds directly to the paddy water, and then maintained at that water depth for the duration of the test. Treated plants and controls were maintained in a greenhouse for 10 to 14 days, after which time all species were compared to controls and visually evaluated. Plant response ratings, summarized in Table B, are based on a scale of 0 to 100 where 0 is no effect and 100 is complete control. A dash (-) response means no test result.

[1] = test system: ryegrass, Italian (Italian ryegrass, Lolium multiflorum); experiment: Test A postemergence, Italian ryegrass; conditions: post-emergence, 240 h, 0 to 100 scale, 10 days, read-out: Plant response rating, Ryegrass, Italian; for pest or weed control at 31 g/ha: 31 g ai/ha; for pest or weed control at 125 g/ha: 125 g ai/ha
Description: (§2) Seeds of plant species selected from barnyardgrass (Echinochloa crus-galli), blackgrass (Alopecurus myosuroides), corn (Zea mays), foxtail, giant (giant foxtail, Setaria faberi), goosegrass (Eleusine indica), kochia (Bassia scoparia), oat, wild (wild oat, Avena fatua), pigweed, palmer (palmer amaranth, Amaranthus palmeri), pigweed, redroot (redroot pigweed, Amaranthus retroflexus), ragweed (common ragweed, Ambrosia artemisiifolia), ryegrass, Italian (Italian ryegrass, Lolium multiflorum), soybean (Glycine max), and wheat (Triticum aestivum) were planted into a blend of loam soil and sand and treated preemergence with a directed soil spray using test chemicals formulated in a non-phytotoxic solvent mixture which included a surfactant.
(§3) At the same time, plants selected from these crop and weed species and also galium (catchweed bedstraw, Galium aparine) and horseweed (Erigeron canadensis) were planted in pots containing the same blend of loam soil and sand and treated with postemergence applications of test chemicals formulated in the same manner. Plants ranged in height from 2 to 10 cm and were in the one- to two-leaf stage for the postemergence treatment. Treated plants and untreated controls were maintained in a greenhouse for 10 days, after which time all treated plants were compared to untreated controls and visually evaluated for injury. Plant response ratings, summarized in Table A, are based on a 0 to 100 scale where 0 is no effect and 100 is complete control. A dash (-) response means no test result.

[2] = test system: foxtail, giant (giant foxtail, Setaria faberi); experiment: Test A postemergence, giant foxtail; conditions: post-emergence, 240 h, 0 to 100 scale, 10 days, read-out: Plant response rating, Foxtail, Giant; for pest or weed control at 31 g/ha: 31 g ai/ha; for pest or weed control at 125 g/ha: 125 g ai/ha
Description: as §2, §3

[3] = test system: galium (catchweed bedstraw, Galium aparine); experiment: Test A postemergence, galium; conditions: post-emergence, 240 h, 0 to 100 scale, 10 days, read-out: Plant response rating, Galium; for pest or weed control at 31 g/ha: 31 g ai/ha; for pest or weed control at 125 g/ha: 125 g ai/ha
Description: as §2, §3

corn (Zea mays) = experiment: Test A postemergence, corn; conditions: post-emergence, 240 h, 0 to 100 scale, 10 days; for Corn plant response rating (crop injury, 0 = no effect, 100 = complete kill) at 31 g/ha: 31 g ai/ha; for Corn plant response rating (crop injury, 0 = no effect, 100 = complete kill) at 125 g/ha: 125 g ai/ha
Description: as §2, §3

[4] = test system: sedge, umbrella (small-flower umbrella sedge, Cyperus difformis); experiment: Test B flooded paddy test, umbrella sedge; conditions: 250 g ai/ha, Flood, scale of 0 to 100 where 0 is no effect and 100 is complete control, visually evaluated after 10 to 14 days, read-out: Plant response rating, Sedge, Umbrella
Protocol: as §1

soybean (Glycine max) [5] = experiment: Test A preemergence, soybean; conditions: 0 to 100 scale, 10 days
Description: as §2, §3

[6] = test system: goosegrass (Eleusine indica); experiment: Test A preemergence, goosegrass; conditions: 0 to 100 scale, 10 days
Description: as §2, §3

soybean (Glycine max) [7] = experiment: Test A postemergence, soybean; conditions: 0 to 100 scale, 10 days
Description: as §2, §3

[8] = test system: oat, wild (wild oat, Avena fatua); experiment: Test A postemergence, wild oat; conditions: 0 to 100 scale, 10 days
Description: as §2, §3

[9] = test system: oat, wild (wild oat, Avena fatua); experiment: Test A preemergence, wild oat; conditions: 0 to 100 scale, 10 days
Description: as §2, §3

Structure (SMILES)	plant injury at 250 g/ha (rice (Oryza sativa))	pest or weed control at 31 g/ha [1]	pest or weed control at 125 g/ha [1]	pest or weed control at 31 g/ha [2]	pest or weed control at 125 g/ha [2]	pest or weed control at 31 g/ha [3]	pest or weed control at 125 g/ha [3]	Corn plant response rating (crop injury, 0 = no effect, 100 = complete kill) at 31 g/ha (corn (Zea mays))	Corn plant response rating (crop injury, 0 = no effect, 100 = complete kill) at 125 g/ha (corn (Zea mays))	pest or weed control at 250 g/ha [4]	Plant response rating, Soybean (soybean (Glycine max) [5]; 31 g ai/ha)	Plant response rating, Soybean (soybean (Glycine max) [5]; 125 g ai/ha)	Plant response rating, Goosegrass ([6]; 31 g ai/ha)	Plant response rating, Goosegrass ([6]; 125 g ai/ha)	Plant response rating, Soybean (soybean (Glycine max) [7]; 31 g ai/ha)	Plant response rating, Soybean (soybean (Glycine max) [7]; 125 g ai/ha)	Plant response rating, Oat, Wild ([8]; 31 g ai/ha)	Plant response rating, Oat, Wild ([8]; 125 g ai/ha)	Plant response rating, Oat, Wild ([9]; 31 g ai/ha)	Plant response rating, Oat, Wild ([9]; 125 g ai/ha)
C#CCOC1CCN(c2cc(NS(=O)(=O)C(F)(F)F)c(C)cc2C)C1=O (centres unmarked) [Compound 1, N-[2,4-dimethyl-5-[2-oxo-3-(2-propyn-1-yloxy)-1-pyrrolidinyl]phenyl]-1,1,1-trifluoromethanesulfonamide]	30%	70%	70%	40%	60%	80%	100%	50%	90%	90%										
C=CCOC1CCN(c2cc(NS(=O)(=O)C(F)(F)F)c(C)cc2C)C1=O (centres unmarked) [Compound 2, N-[2,4-dimethyl-5-[2-oxo-3-(2-propen-1-yloxy)-1-pyrrolidinyl]phenyl]-1,1,1-trifluoromethanesulfonamide]	10%	70%	70%	30%	50%	80%	100%	0%	90%	85%										
Cc1cc(C)c(N2CCC(OC3CC3)C2=O)cc1NS(=O)(=O)C(F)(F)F (centres unmarked) [Compound 3, N-[5-[3-(cyclopropyloxy)-2-oxo-1-pyrrolidinyl]-2,4-dimethylphenyl]-1,1,1-trifluoromethanesulfonamide]	50%	90%	90%	70%	90%	70%	100%	90%	90%	98%	30	80	70	100	60	70	40	80	70	100
Cc1cc(C)c(N2CCC(OC3CCC3)C2=O)cc1NS(=O)(=O)C(F)(F)F (centres unmarked) [Compound 4, N-[5-[3-(cyclobutyloxy)-2-oxo-1-pyrrolidinyl]-2,4-dimethylphenyl]-1,1,1-trifluoromethanesulfonamide]	0%	80%	80%	40%	80%	100%	100%	90%	0%	100%	70	100	100	100	50	70	30	60	80	100
Cc1cc(C)c(N(COC(=O)C(C)(C)C)S(=O)(=O)C(F)(F)F)cc1N1CCC(OC2CCCC2)C1=O (centres unmarked) [Compound 5, [[5-[3-(cyclopentyloxy)-2-oxo-1-pyrrolidinyl]-2,4-dimethylphenyl][(trifluoromethyl)sulfonyl]amino]methyl 2,2-dimethylpropanoate]	0%	20%	40%	0%	80%	60%	90%	0%	80%	85%	0	20	10	90	60	70	20	30	0	40
Cc1cc(C)c(N2CCC(OC3CCCC3)C2=O)cc1NS(=O)(=O)C(F)(F)F (centres unmarked) [Compound 6, N-[5-[3-(cyclopentyloxy)-2-oxo-1-pyrrolidinyl]-2,4-dimethylphenyl]-1,1,1-trifluoromethanesulfonamide]	10%	0%	50%	10%	60%	80%	90%	0%	90%	75%	50	90	90	100	70	70	0	20	70	90
Cc1cc(C)c(N(COC(=O)C(C)(C)C)S(=O)(=O)C(F)(F)F)cc1N1CCC(OC2CC2)C1=O (centres unmarked) [Compound 7, [[5-[3-(cyclopropyloxy)-2-oxo-1-pyrrolidinyl]-2,4-dimethylphenyl][(trifluoromethyl)sulfonyl]amino]methyl 2,2-dimethylpropanoate]	30%	50%	90%	60%	90%	90%	100%	90%	90%	90%	20	40	80	100	90	90	30	70	20	100
Cc1cc(C)c(N(COC(=O)C(C)(C)C)S(=O)(=O)C(F)(F)F)cc1N1CCC(OC2CCC2)C1=O (centres unmarked) [Compound 8, [[5-[3-(cyclobutyloxy)-2-oxo-1-pyrrolidinyl]-2,4-dimethylphenyl][(trifluoromethyl)sulfonyl]amino]methyl 2,2-dimethylpropanoate]	35%	40%	100%	30%	80%	100%	100%	30%	80%	95%	40	50	70	100	60	90	10	30	0	70

Source: patent US20240158348A1, “HERBICIDAL CYCLIC AMIDES N-SUBSTITUTED WITH A HALOALKYLSULFONYLANILIDE GROUP” (FMC Corporation, priority 2021, published 2024)
